In test [1] the test system is Chromobacterium violaceum. The experiment in a line: Inhibition of quorum sensing system in Chromobacterium violaceum ATCC 31532 assessed as reduction in violacein production at 400 uM relative to control.
In test [2] the test system is Chromobacterium violaceum. Kind of test: Bactericidal activity against Chromobacterium violaceum ATCC 31532 at 400 uM by resazurin dye based assay relative to control. In kind it is functional. In general terms: Alamar Blue is a resazurin reagent that responds to reducing activity.
The test system of test [3] is Chromobacterium violaceum. The experiment in a line: Inhibition of quorum sensing in violacein-negative Chromobacterium violaceum CV026 mini-Tn5 mutant assessed as quorum quenching by measuring violacein production at 400 uM in presence of C6-HSL relative to control. Further details: scale not given: the % may be the effect or the level left.
For test [4], the system named is Chromobacterium violaceum. Kind of test: Bactericidal activity against violacein-negative Chromobacterium violaceum CV026 mini-Tn5 mutant at 400 uM by resazurin dye based assay relative to control. The format is functional.
Test [5] concerns Chromobacterium violaceum. Kind of test: Inhibition of quorum sensing in violacein-negative Chromobacterium violaceum CV026 mini-Tn5 mutant assessed as quorum quenching by measuring violacein production at 40 uM in presence of C6-HSL relative to control. Further details: scale not given: the % may be the effect or the level left.
The test system of test [6] is Chromobacterium violaceum. The experiment in a line: Inhibition of quorum sensing in Chromobacterium violaceum ATCC 31532 assessed as reduction in violacein production at 400 uM relative to control.
Test [7] concerns Chromobacterium violaceum. Kind of test: Inhibition of quorum sensing in Chromobacterium violaceum ATCC 31532 assessed as quorum quenching by measuring violacein production at 40 uM in presence of C6-HSL.
The subject of test [8] is Chromobacterium violaceum. The experiment in a line: Inhibition of quorum sensing in Chromobacterium violaceum ATCC 31532 assessed as reduction in violacein production at 40 uM relative to control.
Test [9] concerns Chromobacterium violaceum. The experiment in a line: Bactericidal activity against Chromobacterium violaceum ATCC 31532 assessed as reduction in cell viability at 400 uM by resazurin dye based assay relative to control.

Structures are written as SMILES. The source made the active and inactive calls. The rule behind the calls is not given here.

As to `COc1cc(NC(C)CCCNC(=O)/C=C/C(=O)Nc2cccc(Cl)c2)c2ncccc2c1` (stereo unspecified), in test [1], the inhibition entry is “inactive”. The same compound had an Activity in test [2] of 17.9%.
For the compound `O=C(/C=C/C(=O)Nc1ccc(Cl)cc1)NCCCCNc1cc(C(F)(F)F)nc2c(C(F)(F)F)cccc12`, in test [1], the inhibition was determined as 29.9%. In addition, the outcome in [2] was inactive.
`O=C(/C=C/C(=O)Nc1cccc(C(F)(F)F)c1)NCCCCNc1cc(C(F)(F)F)nc2c(C(F)(F)F)cccc12`: the inhibition in test [1] stood at 22.3%. In [2], the Activity came out at 13.8%.
In the same order, the values of `COc1cc(NC(C)CCCNC(=O)/C=C/C(=O)Nc2ccc(C(F)(F)F)cc2)c2ncccc2c1` (stereo unspecified) are “inactive” and 31.2%.
With `CC(C)(C)OC(=O)N1CCC(NC(=O)/C=C/C(=O)NCCCCNc2ccnc3cc(Cl)ccc23)CC1`, the inhibition entry in test [1] is “inactive”. Besides, the Activity in test [2] was found to be 8.3%.
`CC[C@H]1OC(=O)[C@H](C)[C@@H](O[C@H]2C[C@@](C)(OC)[C@@H](O)[C@H](C)O2)[C@H](C)[C@@H](O[C@@H]2O[C@H](C)C[C@H](N(C)C)[C@H]2O)[C@](C)(O)C[C@@H](C)CN(C)[C@H](C)[C@@H](O)[C@]1(C)O` [AZITHROMYCIN]: the inhibition in test [1] and in test [6] was 90.6% throughout. Also, the Activity in test [2] was 85.6%; in test [3], 86.3%; in test [4], 67.2%; in test [5] it was 86.3%.
Regarding `CC(C)(C)OC(=O)NC1CCN(C(=O)/C=C/C(=O)NCCCCNc2ccnc3cc(Cl)ccc23)CC1`, in test [1], the inhibition came out at 9.1%. The Activity in [2] was determined as 44.6%.
For `O=C(/C=C/C(=O)Nc1ccc(C(F)(F)F)cc1)NCCCCNc1ccnc2cc(Cl)ccc12`, the inhibition in test [1] worked out at 85.7%. The Activity in [2] is given as 27.7%. The outcome in test [3], in [4] and in [7] was inactive.
In the case of `COc1cc(NC(C)CCCNC(=O)/C=C/C(=O)Nc2cccc(C(F)(F)F)c2)c2ncccc2c1` (stereo unspecified), the inhibition entry in test [1] is “inactive”. For the same compound, in test [2], the Activity stood at 16.4%. Also, the result in test [7] was inactive.
On to `O=C(/C=C/C(=O)Nc1ccc(F)cc1)NCCCCNc1cc(C(F)(F)F)nc2c(C(F)(F)F)cccc12`, for which the inhibition in [1] amounted to 29.1%. Besides, the outcome in test [2] was inactive.
For the compound `NC1CCN(C(=O)/C=C/C(=O)NCCCCNc2ccnc3cc(Cl)ccc23)CC1`, the inhibition is 47.2% in test [1] and 7% in test [8]. Besides, the Activity in [2] is 16.2%; in test [3], 62.6%; in test [4] it was 13.4%; in test [5] it was 39.9%.
In the case of `Nc1ccc(NC(=O)/C=C/C(=O)NCCCCNc2ccnc3cc(Cl)ccc23)cc1`, the inhibition in test [1] turned out to be 4.7%. The Activity in test [2] worked out at 17.5%.
Take `NCCNC(=O)/C=C/C(=O)NCCCCNc1ccnc2cc(Cl)ccc12`: the inhibition in test [1] amounted to 46.3%. The Activity came out at 12.1% in test [2], 53.3% in [3], 10.3% in test [4] and 52.5% in test [5]. The inhibition result in [8] is “inactive”.
Turning to `COc1cc(NC(C)CCCN)c2ncccc2c1` (stereo unspecified), the inhibition result in test [1] is “inactive”. The result in [2], in test [3] and in test [4] was inactive.
As to `O=C(/C=C/C(=O)NC1CCNCC1)NCCCCNc1ccnc2cc(Cl)ccc12`, the inhibition in test [1] was 45.9%; in test [8] it was 5.4%. In addition, the Activity in test [2] amounted to 6.5%; in [3], 61.6%; in test [4] it was 10.3%; in test [5], 42.8%.
Take `COc1cc(NC(C)CCCNC(=O)/C=C/C(=O)Nc2ccc(Cl)cc2)c2ncccc2c1` (stereo unspecified): in [1], the inhibition entry was “inactive”. Further, the result in test [2] was inactive.
Turning to `O=c1c(O)c(-c2ccc(O)c(O)c2)oc2cc(O)cc(O)c12` [QUERCETIN], in [1], the inhibition is 55.8%. Besides, the Activity in test [2] stood at 14.7%; in test [3] it was 66.8%; in test [4] it was 17.1%.
`CC(C)(C)OC(=O)NCCNC(=O)/C=C/C(=O)NCCCCNc1ccnc2cc(Cl)ccc12`: the inhibition in test [1] stood at 23%. Besides, the Activity in test [2] is 10.7%.
Take `O=C(/C=C/C(=O)Nc1cccc(Cl)c1)NCCCCNc1ccnc2cc(Cl)ccc12`: the inhibition was 75.3% in test [1] and 75% in test [6]. The Activity is recorded as 45.8% in test [2] and 27% in [9]. Further, the result in test [3] and in [4] was inactive.
As to `CCN(CC)CCCC(C)Nc1ccnc2cc(Cl)ccc12` (stereo unspecified) [CHLOROQUINE], the inhibition in test [1] turned out to be 13.2%. Also, the Activity in test [2] came out at 10.1%.
In the case of `O=C(/C=C/C(=O)Nc1cccc(F)c1)NCCCCNc1ccnc2cc(Cl)ccc12`, the results for the inhibition in test [1] and in test [6] were 79.4% and 75%, respectively. For the same compound, the Activity in [2] is listed as 27.8%; in test [9] it was 27%. For the same compound, the result in [3], in [4] and in test [7] was inactive.
For `COc1cc(NC(C)CCCNC(=O)/C=C/C(=O)Nc2ccc(F)cc2)c2ncccc2c1` (stereo unspecified), the inhibition result in test [1] was “inactive”. In addition, in test [2], the Activity turned out to be 24.2%.
Turning to `O=C(/C=C/C(=O)Nc1cccc(C(F)(F)F)c1)NCCCCNc1ccnc2cc(Cl)ccc12`, the inhibition entry in [1] was “inactive”. In addition, in test [2], the result was inactive.
`O=C(/C=C/C(=O)Nc1ccc(C(F)(F)F)cc1)NCCCCNc1cc(C(F)(F)F)nc2c(C(F)(F)F)cccc12`: in [1], the inhibition entry is “inactive”. Further, the result in [2] was inactive.
As for `O=C(/C=C/C(=O)Nc1cccc(F)c1)NCCCCNc1cc(C(F)(F)F)nc2c(C(F)(F)F)cccc12`, in test [1], the inhibition was determined as 16.9%. For the same compound, the outcome in [2] was inactive.
In the case of `COc1cc(NC(C)CCCNC(=O)/C=C/C(=O)Nc2cccc(F)c2)c2ncccc2c1` (stereo unspecified), the inhibition entry in [1] was “inactive”. The result in test [2] was inactive.
`O=C(/C=C/C(=O)Nc1ccc(Cl)cc1)NCCCCNc1ccnc2cc(Cl)ccc12`: the inhibition in test [1] amounted to 85%. In addition, the Activity in test [2] turned out to be 56.9%; in [9] it was 27%. Moreover, the outcome in test [3], in test [4] and in [7] was inactive.
With `CC(C)(C)OC(=O)Nc1ccc(NC(=O)/C=C/C(=O)NCCCCNc2ccnc3cc(Cl)ccc23)cc1`, the inhibition entry in test [1] was “inactive”. The Activity in test [2] is 43.7%.
Consider `O=C(/C=C/C(=O)Nc1cccc(Cl)c1)NCCCCNc1cc(C(F)(F)F)nc2c(C(F)(F)F)cccc12`, for which, in [1], the inhibition is 22.3%. For the same compound, in test [2], the Activity turned out to be 22.3%.
For `O=C(/C=C/C(=O)Nc1ccc(F)cc1)NCCCCNc1ccnc2cc(Cl)ccc12`, the inhibition was 87.9% in test [1] and 75% in test [6]. The Activity in test [2] was determined as 39.7%. In addition, the outcome in test [3], in test [4] and in [7] was inactive.

In general, inhibition refers to how much of the control response was suppressed.

The values above are taken from ChEMBL document CHEMBL4725270, “Chloroquine fumardiamides as novel quorum sensing inhibitors” (2020).
